In PubChem BioAssay AID1963423 (Molecular Pharmacology Branch, DTP, NCI, 2024):

Tested on: 439559-082-T-J2-PDC complex spheroid growth
Test: Anticancer human tumor 439559-082-T-J2-PDC patient-derived colon adenocarcinoma cell line growth inhibition [Asc]
Settings: for IC50: curve of first compound; for viability, T/C: stronger effect = lower value
Description: Multicellular complex tumor spheroid response to apoptosis pathway targeting inhibitors Alrizomadlin, Pelcitoclax, and Dasminapant in combination with a variety of drugs and investigational agents in selected tumor cell lines
The MDM2 inhibitor alrizomadlin, the Bcl-2/Bcl-xL inhibitor pelcitoclax, and the IAPs inhibitor dasminapant were evaluated both individually and in combination with standard of care and investigational anticancer small molecules within a complex spheroid model of solid tumors. . Complex spheroids include a stromal component modeled by human endothelial cells (HUVEC) and fibroblasts modeled by human mesenchymal stem cells (MSCs). The concentration ranges selected for each drug and investigational agent were based upon clinically achievable concentrations if the clinical Cmax of the agent was known.
Compounds. The drugs and investigational agents: alrizomadlin (APG-115; NSC831270), pelcitoclax (APG-1252; NSC835773), dasminapant (APG-1387;NSC834197), TAK-243 (NSC785004), copanlisib (NSC809693), olaparib (NSC753686), talazoparib (NSC767125), cobimetinib (NSC 768068), eltanexor (KPT-8602, NSC 794443), abemaciclib (NSC 768073), sotorasib (NSC818433), adagrasib (NSC 831453), MRTX-1133 (NSC 836407), Iadademestat (ORY1001, NSC 806812), and RMC-4630 (NSC839698), were obtained from the NCI Developmental Therapeutics Program Chemical Repository. The FDA-approved anticancer drug set is available from the Developmental Therapeutics Program at https://dtp.cancer.gov/organization/dscb/obtaining/available plates.htm. […] The stock solutions were prepared in dimethyl sulfoxide (DMSO, Sigma-Aldrich, St. Louis, MO, cat. D2650) at 800-fold the tested concentration and stored at -70 degrees C prior to their use. All drugs and investigational agents were tested over a range starting from a high concentration at or near the clinical Cmax and decreasing in half-log increments. If the clinical Cmax for an agent had not been determined, the highest concentration tested was 10 microM.
The patient-derived cancer (PDC) cell lines include five colon adenocarcinomas: 186277-243-T-J2-PDC, 616215-338-R-J1-PDC, 439559-082-T-J2-PDC, 463943-066-T-J2-PDC, and 519858-162-T-J1-PDC; three pancreatic carcinomas: 323965-272-R-J2-PDC, 521955-158-R6-J3-PDC, and 521955-158-R2-J5-PDC; two uterine sarcomas: 327498-152-R-J2-PDC and 993429-296-R-J1-PDC; two rhabdomyosarcomas: 755483-174-R-J1-PDC and 772245-204-R-J1-PDC; two soft tissue sarcomas: 126254-015-R-J1-PDC and 494315-158-R-J1-PDC; two malignant fibrous histiocytomas: 317291-083-R-J1-PDC and 596521-263-R-J1-PDC; two breast carcinomas: 171881-019-R-J1-PDC and 885512-296-R-J2-PDC; and one ovarian carcinoma: 6556581-035-R-J-PDC were obtained from the NCI PDMR, (https://pdmr.cancer.gov). The established cell lines HSSY-2 synovial sarcoma (RRID:CVCL 8719), SYO-1 synovial sarcoma (RRID:CVCL_7146), MPNST malignant peripheral neural sheath tumor were obtained from the Sloan Kettering Institute. The following established cell lines were purchased from the American Type Culture Collection (ATCC, Manassas, VA), Sor the received from the NCI repository:, PANC-1 pancreatic carcinoma (CRL-1469, RRID:CVCL_0480), OVCAR-5 ovarian carcinoma (RRID:CVCL_1628), OVCAR-8 ovarian carcinoma (RRID:CVCL_1629), , MCF-7 breast carcinoma (CRL-12584, RRID:CVCL_0031), MDA-MB-231 breast carcinoma (CRL-12532, RRID:CVCL_0062), NCI-H1876 small cell lung carcinoma (CRL-5902, RRID:CVCL_1503), NCI-H510A small cell lung carcinoma (HTB-184, RRID:CVCL_1565), NCI-H1417 (CRL-5869, RRID:CVCL_1469), and NCI-H196 small cell lung carcinoma (CRL-5823, RRID:CVCL_1509). Dr. Peter Houghton (Greehey Children's Cancer Research Institute, University of Texas Health Science Center, San Antonio, TX) provided Rh-18 rhabdomyosarcoma (RRID:CVCL_1659). Pooled donor human umbilical vein endothelial cells (HUVEC, Lonza, cat. CC-2519) and human mesenchymal stem cells (hMSC, Lonza, cat. PT-2501) were purchased from Lonza (Walkersville, MD).
Cell Culture. […]

[1] = second compound 0.1 µM, first compound 0.00949 µM
[2] = second compound 0.1 µM, first compound 0.03 µM
[3] = second compound 0.1 µM, first compound 0.0949 µM
[4] = second compound 0.1 µM, first compound 0.3 µM
[5] = second compound 0.316 µM, first compound 0.00949 µM
[6] = second compound 0.316 µM, first compound 0.03 µM
[7] = second compound 0.316 µM, first compound 0.0949 µM
[8] = second compound 0.316 µM, first compound 0.3 µM
[9] = second compound 1 µM, first compound 0.00949 µM
[10] = second compound 1 µM, first compound 0.03 µM
[11] = second compound 1 µM, first compound 0.0949 µM
[12] = second compound 1 µM, first compound 0.3 µM
[13] = second compound 3.16 µM, first compound 0.00949 µM
[14] = second compound 3.16 µM, first compound 0.03 µM
[15] = second compound 3.16 µM, first compound 0.0949 µM
[16] = second compound 3.16 µM, first compound 0.3 µM
[17] = second compound 10 µM, first compound 0.00949 µM
[18] = second compound 10 µM, first compound 0.03 µM
[19] = second compound 10 µM, first compound 0.0949 µM
[20] = second compound 10 µM, first compound 0.3 µM
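Note: spheroids exposed to agents for 7 days starting day 3 after seeding.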
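Throughout, for viability, T/C: percent of DMSO vehicle control viability with 100% = vehicle.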

| IC50 (second compound 0.1 µM) [µM] | IC50 (second compound 0.316 µM) [µM] | IC50 (second compound 1 µM) [µM] | IC50 (second compound 3.16 µM) [µM] | IC50 (second compound 10 µM) [µM] | Structure (SMILES) | viability, T/C [1] [%] | viability, T/C [2] [%] | viability, T/C [3] [%] | viability, T/C [4] [%] | viability, T/C [5] [%] | viability, T/C [6] [%] | viability, T/C [7] [%] | viability, T/C [8] [%] | viability, T/C [9] [%] | viability, T/C [10] [%] | viability, T/C [11] [%] | viability, T/C [12] [%] | viability, T/C [13] [%] | viability, T/C [14] [%] | viability, T/C [15] [%] | other results |
| --- | --- | --- | --- | --- | --- | --- | --- | --- | --- | --- | --- | --- | --- | --- | --- | --- | --- | --- | --- | --- | --- |
| > 3 | > 3 | > 3 | > 3 | > 3 | CCN1C(C(=O)NC23CCC(C(=O)O)(CC2)CC3)C(c2cccc(Cl)c2F)C2(C(=O)Nc3cc(Cl)ccc32)C12CCCCC2 (stereo not given) + Cc1c(S(C)(=O)=O)c(-c2cc(F)cc(N3CCN(c4ccc(NS(=O)(=O)c5ccc(NC(CCN6CCC(C(=O)OCCCP(=O)(O)O)CC6)CSc6ccccc6)c(S(=O)(=O)C(F)(F)F)c5)cc4)CC3)c2)c(-c2ccc(Cl)cc2)n1C(C)C | 96.8 | 104 | 102 | 98.6 | 103 | 104 | 102 | 87.8 | 90.8 | 97 | 99.7 | 84.5 | 81.5 | 92 | 91.4 | viability, T/C (second compound 0.1 µM, first compound 0.949 µM): 95.4%; viability, T/C (second compound 0.1 µM, first compound 3 µM): 93.1%; viability, T/C (second compound 0.316 µM, first compound 0.949 µM): 97.9%; viability, T/C (second compound 0.316 µM, first compound 3 µM): 86.2%; viability, T/C (second compound 1 µM, first compound 0.949 µM): 88.5%; viability, T/C (second compound 1 µM, first compound 3 µM): 79.3%; viability, T/C [16]: 89%; viability, T/C (second compound 3.16 µM, first compound 0.949 µM): 82%; viability, T/C (second compound 3.16 µM, first compound 3 µM): 67.8%; viability, T/C [17]: 69.9%; viability, T/C [18]: 77.7%; viability, T/C [19]: 74.3%; viability, T/C [20]: 69.5%; viability, T/C (second compound 10 µM, first compound 0.949 µM): 74.1%; viability, T/C (second compound 10 µM, first compound 3 µM): 57.3% |
| > 0.3 | > 0.3 | > 0.3 | > 0.3 | > 0.3 | NC(=O)C(=Cn1cnc(-c2cc(C(F)(F)F)cc(C(F)(F)F)c2)n1)c1cncnc1 + Cc1c(S(C)(=O)=O)c(-c2cc(F)cc(N3CCN(c4ccc(NS(=O)(=O)c5ccc(NC(CCN6CCC(C(=O)OCCCP(=O)(O)O)CC6)CSc6ccccc6)c(S(=O)(=O)C(F)(F)F)c5)cc4)CC3)c2)c(-c2ccc(Cl)cc2)n1C(C)C | 92.9 | 87 | 82.7 | 82.5 | 94.9 | 82.8 | 84.2 | 75.5 | 91.1 | 78 | 75.7 | 67.4 | 94.7 | 75.3 | 69.4 | viability, T/C (second compound 0.1 µM, first compound 0.000949 µM): 92%; viability, T/C (second compound 0.1 µM, first compound 0.003 µM): 115%; viability, T/C (second compound 0.316 µM, first compound 0.000949 µM): 100%; viability, T/C (second compound 0.316 µM, first compound 0.003 µM): 101%; viability, T/C (second compound 1 µM, first compound 0.000949 µM): 92.8%; viability, T/C (second compound 1 µM, first compound 0.003 µM): 98.2%; viability, T/C (second compound 3.16 µM, first compound 0.000949 µM): 87%; viability, T/C (second compound 3.16 µM, first compound 0.003 µM): 93.8%; viability, T/C [16]: 64.5%; viability, T/C (second compound 10 µM, first compound 0.000949 µM): 76.3%; viability, T/C (second compound 10 µM, first compound 0.003 µM): 73.6%; viability, T/C [17]: 75%; viability, T/C [18]: 63.8%; viability, T/C [19]: 54.8%; viability, T/C [20]: 56.6% |
